Patent US20250382261A1 (The Broad Institute, Inc., priority 2021, published 2025)
≈ marks a conversion by molar mass, not a printed value.

Experiments:
HepG2 cells = conditions: human, 72 h, 75 µM
[1] = In vitro metabolic stability, dog; format: in vitro ADME; conditions: read-out: In vitro metabolic stability (t1/2, min), dog
[2] = tested on: K. pneumoniae (ATCC 43816); assay: Checkerboard potentiation assay with novobiocin; format: cell-based
Experimental: (§1) Bacterial strains and culture conditions. The following bacterial strains were used within this study; A. baumannii (ATCC 17978), K. pneumoniae (ATCC 43816), K. pneumoniae (ATCC 43816, expressing pGDP2:mcr-1), P. aeruginosa (PA01). Bacterial growth was in cation-adjusted Mueller-Hinton broth (MHB) at 37° C., and inoculum was prepared according to CLSI protocol (CLSI 2015).
(§2) Potentiation assays. Checkerboard analyses were conducted with each drug serially diluted at eight concentrations to create an 8×8 matrix. At least two biological replicates were done for each combination, and the means were used for FIC calculation. The FIC for each drug was calculated by dividing the concentration of the drug in the presence of codrug in a combination for a well showing <10% growth by the MIC for that drug alone. The FIC index (FICI) is the sum of the two FICs, with an FIC index≤0.5 deemed synergistic.
(§3) To probe the spectrum of activity of the present analogs beyond A. baumannii, their interactions with novobiocin were assessed against the high-priority Gram-negative pathogens Klebsiella pneumoniae and P. aeruginosa (FIG. 5).

P. aeruginosa (PA01) = assay: Checkerboard potentiation assay with novobiocin; format: cell-based
Experimental: as §1, §2, §3

CYP2C9 = molecular target: T1, CYP2C9 (Homo sapiens, UniProt P11712); assay: P450 inhibition; format: in vitro ADME; conditions: read-out: P450 Inhibition CYP 2C9 (IC50)
T1 construct: Cyprotex Ltd. (contract laboratory that ran the assay)
Experimental: (§4) P450 inhibition. An 8-point dose-response of P35 (0, 0.1, 0.25, 1, 2.5, 10, 25 μM) was tested against the following cytochrome P450 (CYP) isoforms CYP3A4, CYP2C9, CYP2D6, CYP1A2, and CYP2C19. Reduction in metabolite formation was quantified using LC-MS/MS (with the exception of ethoxyresorufin for CYP1A2) to calculate an IC50 value. This assay was performed by Cyprotex Ltd.

CYP1A2 = molecular target: T2, CYP1A2 (Homo sapiens, UniProt P05177); assay: P450 inhibition; format: in vitro ADME; conditions: read-out: P450 Inhibition CYP 1A2 (IC50)
T2 construct: Cyprotex Ltd. (contract laboratory that ran the assay)
T2 sequence (P05177 1-516): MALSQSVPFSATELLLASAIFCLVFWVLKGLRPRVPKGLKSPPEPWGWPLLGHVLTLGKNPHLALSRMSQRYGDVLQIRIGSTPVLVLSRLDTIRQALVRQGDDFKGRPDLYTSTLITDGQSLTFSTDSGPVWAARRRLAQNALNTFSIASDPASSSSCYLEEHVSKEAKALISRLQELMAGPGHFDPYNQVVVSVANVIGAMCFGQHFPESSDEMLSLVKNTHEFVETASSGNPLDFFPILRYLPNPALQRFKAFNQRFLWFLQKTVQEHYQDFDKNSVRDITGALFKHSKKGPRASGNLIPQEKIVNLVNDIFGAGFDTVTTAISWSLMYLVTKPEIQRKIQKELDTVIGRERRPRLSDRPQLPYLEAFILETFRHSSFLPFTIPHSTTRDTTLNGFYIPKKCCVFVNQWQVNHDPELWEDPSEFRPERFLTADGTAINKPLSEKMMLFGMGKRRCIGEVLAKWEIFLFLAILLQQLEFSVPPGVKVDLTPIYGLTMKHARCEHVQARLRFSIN
Experimental: as §4

CYP3A4 = molecular target: T3, CYP3A4 (Homo sapiens, UniProt P08684); assay: P450 inhibition; format: in vitro ADME; conditions: read-out: P450 Inhibition CYP 3A4 (IC50)
T3 construct: Cyprotex Ltd. (contract laboratory that ran the assay)
Experimental: as §4

CYP2C19 = molecular target: T4, CYP2C19 (Homo sapiens, UniProt P33261); assay: P450 inhibition; format: in vitro ADME; conditions: read-out: P450 Inhibition CYP 2C19 (IC50)
T4 construct: Cyprotex Ltd. (contract laboratory that ran the assay)
Experimental: as §4

CYP2D6 = molecular target: T5, CYP2D6 (Homo sapiens, UniProt P10635); assay: P450 inhibition; format: in vitro ADME; conditions: read-out: P450 Inhibition CYP 2D6 (IC50)
T5 construct: Cyprotex Ltd. (contract laboratory that ran the assay)
Experimental: as §4

in vitro = conditions: human
A. baumannii = assay: Fold reduction of antibiotic MIC at fixed adjuvant concentration; format: cell-based; conditions: pentamidine or P35 at 50 μg/mL
Experimental: as §1, §2

[3] = In vitro metabolic stability, human; format: in vitro ADME; conditions: read-out: In vitro metabolic stability (t1/2, min), human
Solubility at pH 7.4 = format: physicochemical; conditions: pH 7.4, aqueous buffer, thermodynamic from solid; read-out: Kinetic solubility (μM @ pH 7.4)
Experimental: Thermodynamic solubility. P35 in solution at pH 7.4 was incubated at ambient temperature overnight with stirring using a vial roller system. The saturation of the solution was determined using HPLC-UV. This assay was performed in duplicate by Cyprotex Ltd.

[4] = tested on: K. pneumoniae (ATCC 43816, expressing pGDP2:mcr-1); assay: Checkerboard potentiation assay with novobiocin, mcr-1 strain; format: cell-based; conditions: mcr-1 expressing K. pneumoniae
in vivo = conditions: female, C57BL/6, mouse, in vivo, iv, 1 mg/kg
Experimental: Plasma samples were taken from 3 mice per time point (5, 15, 30 min; 1, 2, 4, 6 and 8 h post-dose). An aliquot of 2 μL sample was protein precipitated with 60 μL methanol, the mixture was vortex-mixed well and centrifuged at 13000 rpm for 10 min at 4° C. 2 μL supernatant was injected for LC-MS/MS analysis. The mean plasma concentration and the standard deviation from all 3 animals within each time point were calculated. PK parameters were calculated with a non-compartmental analysis. The mean plasma concentrations from all 3 mice at each time point were used in the calculations.

T5 sequence (P10635 whole entry): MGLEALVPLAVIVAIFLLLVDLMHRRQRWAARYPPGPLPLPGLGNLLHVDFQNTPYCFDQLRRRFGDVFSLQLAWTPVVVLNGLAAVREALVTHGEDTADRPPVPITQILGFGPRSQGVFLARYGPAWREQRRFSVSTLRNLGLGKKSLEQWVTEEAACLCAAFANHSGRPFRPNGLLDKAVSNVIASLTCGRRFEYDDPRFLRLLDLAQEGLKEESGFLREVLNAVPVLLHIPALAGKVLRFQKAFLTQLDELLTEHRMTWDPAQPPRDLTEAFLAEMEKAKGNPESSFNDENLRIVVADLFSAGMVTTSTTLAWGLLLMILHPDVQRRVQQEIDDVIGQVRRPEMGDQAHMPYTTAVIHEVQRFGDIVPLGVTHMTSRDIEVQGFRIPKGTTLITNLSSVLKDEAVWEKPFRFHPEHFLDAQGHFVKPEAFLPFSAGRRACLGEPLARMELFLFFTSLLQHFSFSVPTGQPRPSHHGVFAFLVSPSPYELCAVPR
T3 sequence (P08684 whole entry): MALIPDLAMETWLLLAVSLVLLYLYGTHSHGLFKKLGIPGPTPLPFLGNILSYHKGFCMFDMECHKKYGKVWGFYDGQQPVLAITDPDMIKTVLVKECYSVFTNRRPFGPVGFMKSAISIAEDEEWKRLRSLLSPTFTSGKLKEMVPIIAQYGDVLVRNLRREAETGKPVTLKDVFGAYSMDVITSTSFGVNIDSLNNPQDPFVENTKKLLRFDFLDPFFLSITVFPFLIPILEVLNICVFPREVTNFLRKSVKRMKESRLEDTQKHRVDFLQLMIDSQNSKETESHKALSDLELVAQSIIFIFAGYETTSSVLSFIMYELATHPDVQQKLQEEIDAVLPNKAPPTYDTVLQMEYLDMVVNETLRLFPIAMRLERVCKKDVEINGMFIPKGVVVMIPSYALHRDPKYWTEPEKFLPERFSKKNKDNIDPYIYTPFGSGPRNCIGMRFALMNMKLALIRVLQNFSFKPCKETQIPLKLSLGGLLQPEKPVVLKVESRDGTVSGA
T4 sequence (P33261 whole entry): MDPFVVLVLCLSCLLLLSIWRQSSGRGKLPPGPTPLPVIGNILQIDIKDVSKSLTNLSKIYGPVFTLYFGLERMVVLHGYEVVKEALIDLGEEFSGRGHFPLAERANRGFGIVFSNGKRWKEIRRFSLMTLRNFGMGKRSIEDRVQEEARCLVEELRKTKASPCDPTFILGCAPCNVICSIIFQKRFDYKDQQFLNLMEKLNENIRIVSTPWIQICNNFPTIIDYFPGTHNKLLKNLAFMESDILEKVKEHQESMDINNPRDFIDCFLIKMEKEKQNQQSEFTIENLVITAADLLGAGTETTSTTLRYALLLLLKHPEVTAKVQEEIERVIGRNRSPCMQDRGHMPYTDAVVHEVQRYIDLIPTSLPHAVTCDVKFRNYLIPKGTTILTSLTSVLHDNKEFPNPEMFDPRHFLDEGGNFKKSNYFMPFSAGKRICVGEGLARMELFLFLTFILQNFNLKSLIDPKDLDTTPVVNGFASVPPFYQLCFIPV
T1 sequence (P11712 whole entry): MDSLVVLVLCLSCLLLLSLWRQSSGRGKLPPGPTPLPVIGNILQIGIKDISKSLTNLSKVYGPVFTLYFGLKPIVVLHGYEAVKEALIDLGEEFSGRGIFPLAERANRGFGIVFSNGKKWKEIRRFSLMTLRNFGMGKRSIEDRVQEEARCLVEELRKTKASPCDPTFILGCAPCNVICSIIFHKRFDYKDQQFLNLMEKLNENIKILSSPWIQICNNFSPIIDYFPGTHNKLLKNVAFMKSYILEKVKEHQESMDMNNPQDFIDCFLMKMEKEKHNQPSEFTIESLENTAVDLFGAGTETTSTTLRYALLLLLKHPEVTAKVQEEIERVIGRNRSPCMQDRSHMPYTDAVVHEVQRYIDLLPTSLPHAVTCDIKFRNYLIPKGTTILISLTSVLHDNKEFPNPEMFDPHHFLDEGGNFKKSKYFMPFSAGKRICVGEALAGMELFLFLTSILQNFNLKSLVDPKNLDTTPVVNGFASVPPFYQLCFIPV

N=C(N)c1ccc(OCCN(CCOc2ccc(C(=N)N)cc2)c2ccccc2)cc1 [Analog P35]
Phospholipidosis MR, percentage in brackets (HepG2 cells): 104% | half-life [1]: 137 min | FICI KP [2]: 0.12 | FICI PA (P. aeruginosa (PA01)): 0.3125 | IC50 (CYP2C9): > 50 µM | IC50 (CYP1A2): > 50 µM | IC50 (CYP3A4): > 50 µM | IC50 (CYP2C19): > 50 µM | IC50 (CYP2D6): 14.8 µM | AC50 at 72 h (in vitro; HepG2 viability / cell cycle arrest AC50): 14.5 µM | AC50 at 72 h (in vitro; Nuclear Size AC50 (μM)): 94.5 µM | AC50 at 72 h (in vitro; Phospholipidosis AC50 (μM)): 43.1 µM | Average Fold-reduction in MIC, Ampicillin (A. baumannii; MIC of ampicillin in A. baumannii): 1 fold | Average Fold-reduction in MIC, Bacitracin (A. baumannii; MIC of bacitracin in A. baumannii): 2 fold | Average Fold-reduction in MIC, Chloramphenicol (A. baumannii; MIC of chloramphenicol in A. baumannii): 2 fold | Average Fold-reduction in MIC, Clarithromycin (A. baumannii; MIC of clarithromycin in A. baumannii): 384 fold | Average Fold-reduction in MIC, Doxycycline (A. baumannii; MIC of doxycycline in A. baumannii): 4 fold | Average Fold-reduction in MIC, Erythromycin (A. baumannii; MIC of erythromycin in A. baumannii): 32 fold | Average Fold-reduction in MIC, Fusidic Acid (A. baumannii; MIC of fusidic acid in A. baumannii): 341.33 fold | Average Fold-reduction in MIC, Linezolid (A. baumannii; MIC of linezolid in A. baumannii): 8 fold | Average Fold-reduction in MIC, Meropenem (A. baumannii; MIC of meropenem in A. baumannii): 4 fold | Average Fold-reduction in MIC, Mupirocin (A. baumannii; MIC of mupirocin in A. baumannii): 4 fold | Average Fold-reduction in MIC, Nafcillin (A. baumannii; MIC of nafcillin in A. baumannii): 1.5 fold | Average Fold-reduction in MIC, Nalidixic Acid (A. baumannii; MIC of nalidixic acid in A. baumannii): 4 fold | Average Fold-reduction in MIC, Novobiocin (A. baumannii; MIC of novobiocin in A. baumannii): 512 fold | Average Fold-reduction in MIC, Oxacillin (A. baumannii; MIC of oxacillin in A. baumannii): 1 fold | Average Fold-reduction in MIC, Rifampicin (A. baumannii; MIC of rifampicin in A. baumannii): 384 fold | Average Fold-reduction in MIC, Rifaximin (A. baumannii; MIC of rifaximin in A. baumannii): 256 fold | Average Fold-reduction in MIC, Roxithromycin (A. baumannii; MIC of roxithromycin in A. baumannii): 341.33 fold | Average Fold-reduction in MIC, Thiostrepton (A. baumannii; MIC of thiostrepton in A. baumannii): 170.67 fold | Average Fold-reduction in MIC, Trimethoprim (A. baumannii; MIC of trimethoprim in A. baumannii): 5.33 fold | Average Fold-reduction in MIC, Vancomycin (A. baumannii; MIC of vancomycin in A. baumannii): 4 fold | half-life [3]: > 145 min | thermodynamic solubility (Solubility at pH 7.4): 182 µM (≈ 76.2 µg/mL) | FICI with novobiocin against K. pneumoniae expressing mcr-1 [4]: 0.12 | AUC(0-inf) (in vivo): 55.3 ng·h/mL | AUC(0-t) (in vivo): 51.6 ng·h/mL | C0 (in vivo): 238 ng/mL | MRT inf (in vivo): 1.85 h | MRT last (in vivo): 1.24 h | Vd (in vivo): 33.4 L/kg | clearance (in vivo): 301 mL/min/kg | half-life (in vivo): 1.61 h
